The values that follow come from patent publication US9539252B2, “Piperazine-substituted benzothiophene derivatives as antipsychotic agents” (OTSUKA PHARMACEUTICAL CO., LTD., priority 2011, dated 2017).

The data set is described as follows: Solubility in oil (sesame oil, benzyl benzoate), visual observation. Particulars: oil or lipid, thermodynamic from solid.

Protocol: Each of the Example compounds was examined for the solubility in oil (sesame oil, benzyl benzoate).
For the specific gravity of an oil, the following values were applied. • sesame oil (specific gravity: 0.914-0.921) • benzyl benzoate (specific gravity: 1.123) • (Method)
Example compound is measured in a microtube and an oil (sesame oil, or, benzyl benzoate) in an amount to make the concentration 10 mg/0.1 ml is added. After stirring, the solubility is evaluated by visual observation. When the compound is not dissolved, the mixture is heated, and the solubility is evaluated after cooling.

Consider `CCCCCCCCCCCCCCCCCCN(C)C(=O)OCn1c(=O)ccc2ccc(OCCCCN3CCN(c4cccc5sccc45)CC3)cc21` [Example 44, N-methyl-N-octadecylcarbamic acid 7-[4-(4-benzo[b]thiophen-4-ylpiperazin-1-yl)butoxy]-2-oxo-2H-quinolin-1-ylmethyl ester], for which the solubility (benzyl benzoate) is more than 100 mg/mL and the solubility (sesame oil) is more than 100 mg/mL.

Consider `CCCCN(CCCC)C(=O)OCn1c(=O)ccc2ccc(OCCCCN3CCN(c4cccc5sccc45)CC3)cc21` [Example 45, N,N-dibutylcarbamic acid 7-[4-(4-benzo[b]thiophen-4-ylpiperazin-1-yl)butoxy]-2-oxo-2H-quinolin-1-ylmethyl ester], for which the solubility runs as follows: (benzyl benzoate) more than 100 mg/mL; (sesame oil) more than 100 mg/mL.

The compound `CNC(=O)OCN1C(=O)CCc2ccc(OCCCCN3CCN(c4cccc5sccc45)CC3)cc21` [Example 46, N-methylcarbamic acid 7-[4-(4-benzo[b]thiophen-4-ylpiperazin-1-yl)butoxy]-2-oxo-3,4-dihydro-2H-quinolin-1-ylmethyl ester] yielded a solubility (benzyl benzoate) of more than 100 mg/mL.

Regarding `CN(C)C(=O)OCN1C(=O)CCc2ccc(OCCCCN3CCN(c4cccc5sccc45)CC3)cc21` [Example 47, N,N-dimethylcarbamic acid 7-[4-(4-benzo[b]thiophen-4-ylpiperazin-1-yl)butoxy]-2-oxo-3,4-dihydro-2H-quinolin-1-ylmethyl ester], the solubility (benzyl benzoate) is more than 100 mg/mL.

For the setting “benzyl benzoate”, `CCCCCCCCCCCCCCCCCC(=O)OCN1C(=O)CCc2ccc(OCCCCN3CCN(c4cccc5sccc45)CC3)cc21` [Example 48, octadecanoic acid 7-[4-(4-benzo[b]thiophen-4-ylpiperazin-1-yl)butoxy]-2-oxo-3,4-dihydro-2H-quinolin-1-ylmethyl ester] showed a solubility of more than 100 mg/mL.

Under “benzyl benzoate”, `CCOC(=O)OCN1C(=O)CCc2ccc(OCCCCN3CCN(c4cccc5sccc45)CC3)cc21` [Example 49, carbonic acid 7-[4-(4-benzo[b]thiophen-4-ylpiperazin-1-yl)butoxy]-2-oxo-3,4-dihydro-2H-quinolin-1-ylmethyl ester ethyl ester] had a solubility of more than 100 mg/mL.

For `CCOC(=O)OCn1c(=O)ccc2ccc(OCCCCN3CCN(c4cccc5sccc45)CC3)cc21` [Example 50, carbonic acid 7-[4-(4-benzo[b]thiophen-4-ylpiperazin-1-yl)butoxy]-2-oxo-2H-quinolin-1-ylmethyl ester ethyl ester], the solubility (benzyl benzoate) is more than 100 mg/mL.

`CCNC(=O)OCN1C(=O)CCc2ccc(OCCCCN3CCN(c4cccc5sccc45)CC3)cc21` [Example 51, N-ethylcarbamic acid 7-[4-(4-benzo[b]thiophen-4-ylpiperazin-1-yl)butoxy]-2-oxo-3,4-dihydro-2H-quinolin-1-ylmethyl ester] registered a solubility (benzyl benzoate) of more than 100 mg/mL.

In the case of `CCN(CC)C(=O)OCN1C(=O)CCc2ccc(OCCCCN3CCN(c4cccc5sccc45)CC3)cc21` [Example 52, N,N-diethylcarbamic acid 7-[4-(4-benzo[b]thiophen-4-ylpiperazin-1-yl)butoxy]-2-oxo-3,4-dihydro-2H-quinolin-1-ylmethyl ester], the solubility was more than 100 mg/mL (benzyl benzoate) and more than 100 mg/mL (sesame oil).

Turning to `CNC(=O)OCn1c(=O)ccc2ccc(OCCCCN3CCN(c4cccc5sccc45)CC3)cc21` [Example 53, N-methylcarbamic acid 7-[4-(4-benzo[b]thiophen-4-ylpiperazin-1-yl)butoxy]-2-oxo-2H-quinolin-1-ylmethyl ester], under “benzyl benzoate”, the solubility is more than 100 mg/mL.

On to `CCCCCC(CCCCC)C(=O)OCn1c(=O)ccc2ccc(OCCCCN3CCN(c4cccc5sccc45)CC3)cc21` [Example 54, 2-pentylheptanoic acid 7-[4-(4-benzo[b]thiophen-4-ylpiperazin-1-yl)butoxy]-2-oxo-2H-quinolin-1-ylmethyl ester], for which the solubility (benzyl benzoate) is more than 100 mg/mL.

For the setting “benzyl benzoate”, `CCNC(=O)OCn1c(=O)ccc2ccc(OCCCCN3CCN(c4cccc5sccc45)CC3)cc21` [Example 55, N-ethylcarbamic acid 7-[4-(4-benzo[b]thiophen-4-ylpiperazin-1-yl)butoxy]-2-oxo-2H-quinolin-1-ylmethyl ester] yielded a solubility of more than 100 mg/mL.

Take `CN(C)C(=O)OCn1c(=O)ccc2ccc(OCCCCN3CCN(c4cccc5sccc45)CC3)cc21` [Example 56, N,N-dimethylcarbamic acid 7-[4-(4-benzo[b]thiophen-4-ylpiperazin-1-yl)butoxy]-2-oxo-2H-quinolin-1-ylmethyl ester]: under “benzyl benzoate”, the solubility was more than 100 mg/mL.

On to `CCN(CC)C(=O)OCn1c(=O)ccc2ccc(OCCCCN3CCN(c4cccc5sccc45)CC3)cc21` [Example 57, N,N-diethylcarbamic acid 7-[4-(4-benzo[b]thiophen-4-ylpiperazin-1-yl)butoxy]-2-oxo-2H-quinolin-1-ylmethyl ester], for which the solubility is more than 100 mg/mL (benzyl benzoate) and more than 100 mg/mL (sesame oil).

Take `CCCCCC(=O)OCn1c(=O)ccc2ccc(OCCCCN3CCN(c4cccc5sccc45)CC3)cc21` [Example 58, hexanoic acid 7-[4-(4-benzo[b]thiophen-4-ylpiperazin-1-yl)butoxy]-2-oxo-2H-quinolin-1-ylmethyl ester]: where the note is “benzyl benzoate”, the solubility is more than 100 mg/mL.

Regarding `CCCCCCCCCC(=O)OCn1c(=O)ccc2ccc(OCCCCN3CCN(c4cccc5sccc45)CC3)cc21` [Example 59, decanoic acid 7-[4-(4-benzo[b]thiophen-4-ylpiperazin-1-yl)butoxy]-2-oxo-2H-quinolin-1-ylmethyl ester], for the setting “benzyl benzoate”, the solubility was more than 100 mg/mL.

Consider `CCCCCCCCCCCCCCCCCC(=O)OCn1c(=O)ccc2ccc(OCCCCN3CCN(c4cccc5sccc45)CC3)cc21` [Example 60, octadecanoic acid 7-[4-(4-benzo[b]thiophen-4-ylpiperazin-1-yl)butoxy]-2-oxo-2H-quinolin-1-ylmethyl ester], for which the solubility runs as follows: (benzyl benzoate) more than 100 mg/mL; (sesame oil) more than 100 mg/mL.

The compound `CC(=O)OCn1c(=O)ccc2ccc(OCCCCN3CCN(c4cccc5sccc45)CC3)cc21` [Example 61, acetic acid 7-[4-(4-benzo[b]thiophen-4-ylpiperazin-1-yl)butoxy]-2-oxo-2H-quinolin-1-ylmethyl ester] gave a solubility (benzyl benzoate) of more than 100 mg/mL.

On to `O=C(NCc1ccccc1)OCn1c(=O)ccc2ccc(OCCCCN3CCN(c4cccc5sccc45)CC3)cc21` [Example 62, N-benzylcarbamic acid 7-[4-(4-benzo[b]thiophen-4-ylpiperazin-1-yl)butoxy]-2-oxo-2H-quinolin-1-ylmethyl ester], for which the solubility (benzyl benzoate) is more than 100 mg/mL.

The compound `O=C(NCC1CCCCC1)OCn1c(=O)ccc2ccc(OCCCCN3CCN(c4cccc5sccc45)CC3)cc21` [Example 63, N-cyclohexylmethylcarbamic acid 7-[4-(4-benzo[b]thiophen-4-ylpiperazin-1-yl)butoxy]-2-oxo-2H-quinolin-1-ylmethyl ester] showed a solubility (benzyl benzoate) of more than 100 mg/mL.

`COC(=O)CNC(=O)OCn1c(=O)ccc2ccc(OCCCCN3CCN(c4cccc5sccc45)CC3)cc21` [Example 64, {7-[4-(4-benzo[b]thiophen-4-ylpiperazin-1-yl)butoxy]-2-oxo-2H-quinolin-1-ylmethoxycarbonylamino}acetic acid methyl ester] showed a solubility (benzyl benzoate) of more than 100 mg/mL.

Where the note is “benzyl benzoate”, `CCCCCCCCCCCCCC(=O)OCn1c(=O)ccc2ccc(OCCCCN3CCN(c4cccc5sccc45)CC3)cc21` [Example 65, tetradecanoic acid 7-[4-(4-benzo[b]thiophen-4-ylpiperazin-1-yl)butoxy]-2-oxo-2H-quinolin-1-ylmethyl ester] had a solubility of more than 100 mg/mL.

On to `O=C(OCn1c(=O)ccc2ccc(OCCCCN3CCN(c4cccc5sccc45)CC3)cc21)N1CCOCC1` [Example 67, morpholine-4-carboxylic acid 7-[4-(4-benzo[b]thiophen-4-ylpiperazin-1-yl)butoxy]-2-oxo-2H-quinolin-1-ylmethyl ester], for which, under “benzyl benzoate”, the solubility was more than 100 mg/mL.

Under “benzyl benzoate”, `CCCCCCCCCC(=O)OCN1C(=O)CCc2ccc(OCCCCN3CCN(c4cccc5sccc45)CC3)cc21` [Example 68, decanoic acid 7-[4-(4-benzo[b]thiophen-4-ylpiperazin-1-yl)butoxy]-2-oxo-3,4-dihydro-2H-quinolin-1-ylmethyl ester] registered a solubility of more than 100 mg/mL.

`O=C(NOCc1ccccc1)OCn1c(=O)ccc2ccc(OCCCCN3CCN(c4cccc5sccc45)CC3)cc21` [Example 69, 7-[4-(4-benzo[b]thiophen-4-ylpiperazin-1-yl)butoxy]-2-oxo-2H-quinolin-1-ylmethyl benzyloxycarbamate] yielded a solubility (benzyl benzoate) of more than 100 mg/mL.

With `CCCCCC(=O)OCN1C(=O)CCc2ccc(OCCCCN3CCN(c4cccc5sccc45)CC3)cc21` [Example 70, hexanoic acid 7-[4-(4-benzo[b]thiophen-4-ylpiperazin-1-yl)butoxy]-2-oxo-3,4-dihydro-2H-quinolin-1-ylmethyl ester], for the setting “benzyl benzoate”, the solubility is more than 100 mg/mL.

`O=C(NC1CCCCC1)OCn1c(=O)ccc2ccc(OCCCCN3CCN(c4cccc5sccc45)CC3)cc21` [Example 71, N-cyclohexylcarbamic acid 7-[4-(4-benzo[b]thiophen-4-ylpiperazin-1-yl)butoxy]-2-oxo-2H-quinolin-1-ylmethyl ester] displayed a solubility (benzyl benzoate) of more than 100 mg/mL.

As for `COC(=O)OCN1C(=O)CCc2ccc(OCCCCN3CCN(c4cccc5sccc45)CC3)cc21` [Example 72, carbonic acid 7-[4-(4-benzo[b]thiophen-4-ylpiperazin-1-yl)butoxy]-2-oxo-3,4-dihydro-2H-quinolin-1-ylmethyl ester methyl ester], the solubility (benzyl benzoate) is more than 100 mg/mL.

Consider `COC(=O)CN(C)C(=O)OCn1c(=O)ccc2ccc(OCCCCN3CCN(c4cccc5sccc45)CC3)cc21` [Example 73, ({7-[4-(4-benzo[b]thiophen-4-ylpiperazin-1-yl)butoxy]-2-oxo-2H-quinolin-1-ylmethoxycarbonyl}methylamino)acetic acid methyl ester], for which the solubility (benzyl benzoate) is more than 100 mg/mL.

Consider `C=CCCCCCCCCC(=O)OCn1c(=O)ccc2ccc(OCCCCN3CCN(c4cccc5sccc45)CC3)cc21` [Example 74, undec-10-enoic acid 7-[4-(4-benzo[b]thiophen-4-ylpiperazin-1-yl)butoxy]-2-oxo-2H-quinolin-1-ylmethyl ester], for which the solubility (benzyl benzoate) was more than 100 mg/mL.

By solubility is commonly meant the concentration that dissolves in the medium under given conditions. A low value points to little dissolved substance.
